Consider three molecules from patent publication US20090131317A1, “COMPOUNDS AND PEPTIDES THAT BIND THE TRAIL RECEPTOR” (AFFYMAX, INC., priority 2007, published 2009).

Several values for one entry are separate records, joined by “and”; a condition that tells them apart may be missing. Identical values can stand only once. Like-named read-outs stand apart in the source and are kept apart here. Numbered stars: 1 amine (or outer) side, 2 acyl side, 3 side chain; on linkers, the order of the positions; unused ones are H or OH. Bridge positions count the residues as written; N and C are the ends. Peptide text beside a SMILES is read from it. I, II: the chains in the order shown. Diglycolyl = O=C(COCC(=O)[*:2])[*:1]

Test [1] in a line: Apoptotic (functional) activity of peptides of FIG. 5, assay not named. Particulars: FIG. 5, role of the C-terminal leucine. The test is classed as cell-based.
A further test addresses T1, human TRAIL R2 (Homo sapiens, UniProt O14763).
T1 construct: purchased R&D Systems, Minneapolis, Minn
Description: AlphaQuest TRAIL R2 receptor binding competition assay (AlphaScreen, biotinylated TRAIL ligand vs TRAIL R2-Fc). The note with it: competition with biotinylated TRAIL ligand. The text has this: Laser excitation (680 nm) of a photosensitizer in the donor bead generates singlet state oxygen molecules, which react with a chemiluminescer in the acceptor bead to generate a detectable light signal (520-620 nm). Because the singlet O2 molecules have an extremely short half-life (i.e., t ½), a signal is generated only when the donor and acceptor beads are brought into close proximity, by TRAIL binding to the R2 receptor. The presence of unlabeled test peptide that competes with TRAIL for binding to the R2 receptor will prevent this binding, resulting in a measurable decrease in light emission.
Recombinant human TRAIL R2-Fc fusion protein (R&D Systems, Minneapolis, Minn.) is diluted in AlphaQuest® buffer to a concentration of 600 pM, pre-mixed with 1.9 μL Protein A-coated acceptor beads and 1.9 μL streptavidin-coated donor beads (Perkin-Elmer®, Waltham, Mass.), then 2 μL is added to each well of the assay plate. […] The plates are sealed with adhesive sealing film and covered with aluminum foil, centrifuged at 600 rpm for 30 seconds and incubated overnight in the dark. […] The raw data are analyzed using GraphPad Prism® software (La Jolla, Calif.) to calculate IC50 values from a 4-parameter logistic equation.
In general terms: Bead proximity is the source of the signal in Alpha formats.

The next test deals with HCT-116 cells. The test is classed as cell-based. Here is the method:
The apoptotic activity of test peptides is measured using an HCT-116 proliferation assay. The HCT-116 assay is used to measure the activity of TRAIL R2 agonist peptides using the colon carcinoma cell line HCT-116 (ATCC, Manassas, Va.).
In more detail, a peptide homotrimer based on the peptide monomer sequence of SEQ ID NO: 19 (See, FIG. 8B) is tested for functional activity using the HCT-116 proliferation assay. HCT-116 cells are incubated for one to two days in the presence of serially diluted peptide dimers or peptide trimers. […]
Cell viability is measured using an MTT colorimetric viability assay, a colorimetric assay that analyzes the number of viable cells by measuring the ability of mitochondrial dehydrogenase enzyme in the viable cells to cleave tetrazolium salts added to the culture medium [See, Mosmann (1983) J. Immunol. […] Using this assay, cell proliferation is assessed after 24-48 hours by adding 10 μL of MTT stock solution (ATCC, Manassas, Va.) to the wells. […] After incubation overnight in a 37° C., 5% CO2 incubator, the plates are quantified by reading the optical density at 595 nm (OD595) in a SpectraMax M5 microplate reader (Molecular Devices, Sunnyvale, Calif.). The data are analyzed using GraphPad® Prism software (La Jolla, Calif.) to calculate IC50 values from a 4-parameter logistic equation.

The subject of another test is Jurkat cells. The test is classed as cell-based. Here is the method:
The apoptotic activity of test peptides is measured using a Jurkat proliferation assay.
Jurkat cells are obtained from the American Type Culture Collection (ATCC, Manassas, Va.) and are maintained in RPMI-1640 medium supplemented with 10% FBS, 100 U/mL penicillin, and 100 […] (Growth Medium). […] Cells are resuspended at a density of 1×10^6 cells/mL in Growth Medium, and 50 μl cells is added to each well of the assay plates. The plates are incubated in a 37° C., 5% CO2 incubator for 24-48 hours. Proliferation is assessed by adding 10 μL of MTT stock solution (ATCC, Manassas, Va.) to the wells. The plates are incubated in a 37° C., 5% CO2 incubator for another 2-4 hours, followed by the addition of 100 μL of 20% SDS with 0.01 N HCl. After incubation overnight in a 37° C., 5% CO2 incubator, the plates are quantified by reading the optical density at a wavelength of 595 nm (OD595) in a SpectraMax® M5 microplate reader (Molecular Devices, Sunnyvale, Calif.). The data are analyzed using GraphPad Prism® software (La Jolla, Calif.) to calculate IC50 values from a 4-parameter logistic equation.

Turning to `CC[C@H](C)[C@@H]1NC(=O)[C@H](CCCNC(=N)N)NC(=O)[C@H](CC(N)=O)NC(=O)[C@H](CC(=O)O)NC(=O)[C@H](CC(C)C)NC(=O)[C@@H](NC(=O)[C@H](CC(=O)O)NC(=O)[C@H](Cc2c[nH]c3ccccc23)NC(C)=O)CSSC[C@@H](C(=O)N[C@H](C(=O)N[C@@H](CCCCN)C(N)=O)C(C)C)NC(=O)[C@H](CCC(N)=O)NC(=O)[C@H](CCCNC(=N)N)NC(=O)[C@H](CCCNC(=N)N)NC(=O)CNC1=O` [SEQ ID NO: 28 monomer] (Ac-WDCLDNRIGRRQCVK-NH2; disulfide 3-13), the “apoptotic activity (observed or not)” value in test [1] is on record as “no apoptotic activity is observed”.
`CC[C@H](C)[C@@H]1NC(=O)[C@H](CCCNC(=N)N)NC(=O)[C@H](CC(N)=O)NC(=O)[C@H](CC(=O)O)NC(=O)[C@H](CC(C)C)NC(=O)[C@@H](NC(=O)[C@H](CC(=O)O)NC(=O)[C@H](Cc2c[nH]c3ccccc23)NC(C)=O)CSSC[C@@H](C(=O)N[C@H](C(=O)N[C@@H](CCCCN)C(=O)N[C@@H](CC(C)C)C(N)=O)C(C)C)NC(=O)[C@H](CCC(N)=O)NC(=O)[C@H](CCCNC(=N)N)NC(=O)[C@H](CCCNC(=N)N)NC(=O)CNC1=O` [SEQ ID NO: 19 monomer] (Ac-WDCLDNRIGRRQCVKL-NH2; disulfide 3-13): at human TRAIL R2 (single exemplary values and ranges over assays, read-out: binding affinity / binding activity (IC50)), the IC50 is ~0.049 µM and 0.015 to 0.104 µM and 0.001 to 0.056 µM. Further, the “apoptotic activity (observed or not)” value in test [1] was “exhibits apoptotic activity”.
Usually EC50 stands for the concentration at which the effect is half-maximal. Turning to `CC[C@H](C)[C@@H]1NC(=O)[C@H](CCCNC(=N)N)NC(=O)[C@H](CC(N)=O)NC(=O)[C@H](CC(=O)O)NC(=O)[C@H](CC(C)C)NC(=O)[C@@H](NC(=O)[C@H](CC(=O)O)NC(=O)[C@H](Cc2c[nH]c3ccccc23)NC(C)=O)CSSC[C@@H](C(=O)N[C@H](C(=O)N[C@@H](CCCCNC(=O)COCC(=O)NCCCC[C@H](NC(=O)[C@@H](NC(=O)[C@@H]2CSSC[C@H](NC(=O)[C@H](CC(=O)O)NC(=O)[C@H](Cc3c[nH]c4ccccc34)NC(C)=O)C(=O)N[C@@H](CC(C)C)C(=O)N[C@@H](CC(=O)O)C(=O)N[C@@H](CC(N)=O)C(=O)N[C@@H](CCCNC(=N)N)C(=O)N[C@@H]([C@@H](C)CC)C(=O)NCC(=O)N[C@@H](CCCNC(=N)N)C(=O)N[C@@H](CCCNC(=N)N)C(=O)N[C@@H](CCC(N)=O)C(=O)N2)C(C)C)C(=O)N[C@@H](CC(C)C)C(N)=O)C(=O)N[C@@H](CC(C)C)C(N)=O)C(C)C)NC(=O)[C@H](CCC(N)=O)NC(=O)[C@H](CCCNC(=N)N)NC(=O)[C@H](CCCNC(=N)N)NC(=O)CNC1=O` [SEQ ID NO: 19 homodimer] (I: Ac-WDCLDNRIGRRQCVKL-NH2 / II: Ac-WDCLDNRIGRRQCVKL-NH2; disulfide I:3-I:13, II:3-II:13; linker I:15-II:15 via Diglycolyl), on human TRAIL R2 (single values and ranges over assays, read-out: binding activity (IC50)), the IC50 is ~7 µM and 1 to 56 µM. Besides, the figures for the EC50 in the test with HCT-116 cells and with Jurkat cells were approximately 1.62 µM and 0.945 to 7 µM, respectively.
